BindingDB's records for patent US11504368 (Thomas Helledays Stiftelse FÖr Medicinsk Forskning, 2022)

Molecular target: T1, Bifunctional methylenetetrahydrofolate dehydrogenase/cyclohydrolase, mitochondrial (Homo sapiens, UniProt P13995)
T1 sequence (P13995 whole entry): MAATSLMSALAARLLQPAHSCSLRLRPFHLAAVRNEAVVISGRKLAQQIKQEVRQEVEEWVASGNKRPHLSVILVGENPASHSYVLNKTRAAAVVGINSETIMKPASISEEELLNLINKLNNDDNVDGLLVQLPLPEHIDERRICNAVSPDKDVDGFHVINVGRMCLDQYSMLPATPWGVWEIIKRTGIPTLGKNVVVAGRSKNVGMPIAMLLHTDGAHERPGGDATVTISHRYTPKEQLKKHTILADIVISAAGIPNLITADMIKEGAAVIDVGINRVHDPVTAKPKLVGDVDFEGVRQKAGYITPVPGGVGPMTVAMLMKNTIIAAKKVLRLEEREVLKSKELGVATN
Assay: Inhibition of MTHFD2
Procedure: DMSO was used as negative control. The serial dilution in DMSO, from compound DMSO stock solution, was created by dispensing from a 384-well low dead volume microplate (LP-0200, Labcyte) and a 384-well polypropylene microplate 2.0 (PP-0200, Labcyte). A total of 2.5 μL MTHFD2 was preincubated with compound or DMSO for 10 min. The enzymatic reaction was initiated by adding 2.5 μL folitixorin (F680350, Toronto Research Chemicals). For background control, 5 μL buffer was added to the well. […] The final concentrations of all reagents in a total assay volume of 5 μL per well were 50 mmol/L Tris-HCl at pH 8.0, 100 mmol/L NaCl, 5 mmol/L MgCl2, 25 mmol/L Na3PO4 at pH 8.0, 0.005% (v/v) Tween-20, and 2 mmol/L 2-mercaptoethanol. After 15 min reaction time, 5 μL NAD(P)H-Glo detection reagent (G9061 or G9062, Promega) was dispensed in all wells and the plate was incubated for 60 min. Luminescence was measured on a plate reader (Envision, PerkinElmer or Sense, Hidex). The light signal produced is proportional to the amount of NAD(P)H in the sample.

For Nc1nc(N)c(NC(=O)Nc2ccc(C(=O)N[C@@H](CCc3ccccc3)C(=O)O)nc2)c(=O)[nH]1 [US11504368, Example 14], the IC50 was 36 nM.
